Source: patent publication US20230355626A1, “INHIBITORS OF HUMAN IMMUNODEFICIENCY VIRUS REPLICATION” (VIIV HEALTHCARE UK (NO.5) LIMITED, priority 2020, published 2023)

Legend:
[1] = Compound cytotoxicity, XTT-based colorimetric assay; format: cell-based; conditions: human; uninfected MT2 cells, day 4, XTT assay
Description: Compound cytotoxicity and the corresponding CC50 values were determined using the same protocol as described in the antiviral assay except that uninfected cells were used. Cytotoxicity was assessed on day 4 in uninfected MT2 cells by using an XTT (2,3-bis[2-Methoxy-4-nitro-5-sulfophenyl]-2H-tetrazolium-5-carboxyanilide inner salt)-based colorimetric assay (Sigma-Aldrich, St Louis, Mo).

recombinant NL4-3 virus = experiment: HIV cell culture assay (antiviral activity, luciferase readout in infected MT-2 cells); format: cell-based; conditions: Human immunodeficiency virus 1, NL43, MT2
Description: HIV cell culture assay—MT-2 cells, 293T cells and the proviral DNA clone of NL4-3 virus were obtained from the NIH AIDS Research and Reference Reagent Program. MT-2 cells were propagated in RPMI 1640 media supplemented with 10% heat inactivated fetal bovine serum (FBS), 100 μg/ml penicillin G and up to 100 units/mL streptomycin. The 293T cells were propagated in DMEM media supplemented with 10% heat inactivated FBS, 100 μg/mL penicillin G and 100 μg/mL streptomycin. A recombinant NL4-3 proviral clone, in which a section of the nef gene was replaced with the Renilla luciferase gene, was used to make the reference virus used in these studies. The recombinant virus was prepared through transfection of the recombinant NL4-3 proviral clone into 293T cells using Transit-293 Transfection Reagent from Mirus Bio LLC (Madison, WI). Supernatant was harvested after 2-3 days and the amount of virus present was titered in MT-2 cells using luciferase enzyme activity as a marker by measuring luciferase enzyme activity. Luciferase was quantitated using the EnduRen Live Cell Substrate from Promega (Madison, WI). Antiviral activities of compounds toward the recombinant virus were quantified by measuring luciferase activity in MT-2 cells infected for 4-5 days with the recombinant virus in the presence of serial dilutions of the compound.
The 50% effective concentration (EC50) was calculated by using the exponential form of the median effect equation where (Fa)=1/[1+(ED50/drug conc.)m] (Johnson VA, Byington RT. Infectivity Assay. In Techniques in HIV Research. ed. Aldovini A, Walker BD. 71-76. New York: Stockton Press.1990). Curve fitting and analysis were performed with ActivityBase XE Runner software version 9.1.0.4 using model 203 (ID Business Solutions, LTD, Guildford, UK).

`CN(CCCOc1ccc2c(=O)n(-c3ccc(Cl)c4c(NS(C)(=O)=O)nn(C)c34)c([C@H](Cc3cc(F)cc(F)c3)NC(=O)Cn3nc(C(F)F)c4c3C(F)(F)[C@@H]3C[C@H]43)nc2n1)CC(F)(F)F` (atropisomer, axis not shown; (P)) [Example 11, N-((S)-1-((3P)-3-(4-chloro-1-methyl-3-(methylsulfonamido)-1H-indazol-7-yl)-7-(3-(methyl(2,2,2-trifluoroethyl)amino)propoxy)-4-oxo-3,4-dihydropyrido[2,3-d]pyrimidin-2-yl)-2-(3,5-difluorophenyl)ethyl)-2-((3bS,4aR)-3-(difluoromethyl)-5,5-difluoro-3b,4,4a,5-tetrahydro-1H-cyclopropa[3,4]cyclopenta[1,2-c]pyrazol-1-yl)acetamide] showed a CC50 at 4 day [1] of over 100 nM and an EC50 (recombinant NL4-3 virus) of 0.027 nM.

`Cn1cc(CCOc2ccc3c(=O)n(-c4ccc(Cl)c5c(NS(C)(=O)=O)nn(C)c45)c([C@H](Cc4cc(F)cc(F)c4)NC(=O)Cn4nc(C(F)F)c5c4C(F)(F)[C@@H]4C[C@H]54)nc3n2)cn1` (atropisomer, axis not shown; (P)) [Example 12, N-((S)-1-((3P,3P)-3-(4-chloro-1-methyl-3-(methylsulfonamido)-1H-indazol-7-yl)-7-(2-(1-methyl-1H-pyrazol-4-yl)ethoxy)-4-oxo-3,4-dihydropyrido[2,3-d]pyrimidin-2-yl)-2-(3,5-difluorophenyl)ethyl)-2-((3bS,4aR)-3-(difluoromethyl)-5,5-difluoro-3b,4,4a,5-tetrahydro-1H-cyclopropa[3,4]cyclopenta[1,2-c]pyrazol-1-yl)acetamide] showed a CC50 at 4 day [1] of over 100 nM and an EC50 (recombinant NL4-3 virus) of 0.14 nM.

For `Cn1nc(COc2ccc3c(=O)n(-c4ccc(Cl)c5c(NS(C)(=O)=O)nn(C)c45)c([C@H](Cc4cc(F)cc(F)c4)NC(=O)Cn4nc(C(F)F)c5c4C(F)(F)[C@@H]4C[C@H]54)nc3n2)cc1C(F)(F)F` (atropisomer, axis not shown; (P)) [Example 13, N-((S)-1-((3P)-3-(4-chloro-1-methyl-3-(methylsulfonamido)-1H-indazol-7-yl)-7-((1-methyl-5-(trifluoromethyl)-1H-pyrazol-3-yl)methoxy)-4-oxo-3,4-dihydropyrido[2,3-d]pyrimidin-2-yl)-2-(3,5-difluorophenyl)ethyl)-2-((3bS,4aR)-3-(difluoromethyl)-5,5-difluoro-3b,4,4a,5-tetrahydro-1H-cyclopropa[3,4]cyclopenta[1,2-c]pyrazol-1-yl)acetamide], the CC50 at 4 day [1] was over 100 nM and the EC50 (recombinant NL4-3 virus) was 0.058 nM.

`Cn1nccc1CCOc1ccc2c(=O)n(-c3ccc(Cl)c4c(NS(C)(=O)=O)nn(C)c34)c([C@H](Cc3cc(F)cc(F)c3)NC(=O)Cn3nc(C(F)F)c4c3C(F)(F)[C@@H]3C[C@H]43)nc2n1` (atropisomer, axis not shown; (P)) [Example 14, N-((R)-1-((3P,3P)-3-(4-chloro-1-methyl-3-(methylsulfonamido)-1H-indazol-7-yl)-7-(2-(1-methyl-1H-pyrazol-5-yl)ethoxy)-4-oxo-3,4-dihydropyrido[2,3-d]pyrimidin-2-yl)-2-(3,5-difluorophenyl)ethyl)-2-((3bS,4aR)-3-(difluoromethyl)-5,5-difluoro-3b,4,4a,5-tetrahydro-1H-cyclopropa[3,4]cyclopenta[1,2-c]pyrazol-1-yl)acetamide] gave a CC50 at 4 day [1] of over 500 nM and an EC50 (recombinant NL4-3 virus) of 0.061 nM.

Work on `COC(C)(C)CCOc1ccc2c(=O)n(-c3ccc(Cl)c4c(NS(C)(=O)=O)nn(C)c34)c([C@H](Cc3cc(F)cc(F)c3)NC(=O)Cn3nc(C(F)F)c4c3C(F)(F)[C@@H]3C[C@H]43)nc2n1` (atropisomer, axis not shown; (P)) [Example 15, N-((S)-1-((3P)-3-(4-chloro-1-methyl-3-(methylsulfonamido)-1H-indazol-7-yl)-7-(3-methoxy-3-methylbutoxy)-4-oxo-3,4-dihydropyrido[2,3-d]pyrimidin-2-yl)-2-(3,5-difluorophenyl)ethyl)-2-((3bS,4aR)-3-(difluoromethyl)-5,5-difluoro-3b,4,4a,5-tetrahydro-1H-cyclopropa[3,4]cyclopenta[1,2-c]pyrazol-1-yl)acetamide] yielded a CC50 at 4 day [1] of over 500 nM and an EC50 (recombinant NL4-3 virus) of 0.019 nM.

Work on `COC1(CCOc2ccc3c(=O)n(-c4ccc(Cl)c5c(NS(C)(=O)=O)nn(C)c45)c([C@H](Cc4cc(F)cc(F)c4)NC(=O)Cn4nc(C(F)F)c5c4C(F)(F)[C@@H]4C[C@H]54)nc3n2)CCC1` (atropisomer, axis not shown; (P)) [Example 16, N-((S)-1-((3P,3P)-3-(4-chloro-1-methyl-3-(methylsulfonamido)-1H-indazol-7-yl)-7-(2-(1-methoxycyclobutyl)ethoxy)-4-oxo-3,4-dihydropyrido[2,3-d]pyrimidin-2-yl)-2-(3,5-difluorophenyl)ethyl)-2-((3bS,4aR)-3-(difluoromethyl)-5,5-difluoro-3b,4,4a,5-tetrahydro-1H-cyclopropa[3,4]cyclopenta[1,2-c]pyrazol-1-yl)acetamide] yielded a CC50 at 4 day [1] of over 100 nM and an EC50 (recombinant NL4-3 virus) of 0.03 nM.

Compound `COCCCCCOc1ccc2c(=O)n(-c3ccc(Cl)c4c(NS(C)(=O)=O)nn(C)c34)c([C@H](Cc3cc(F)cc(F)c3)NC(=O)Cn3nc(C(F)F)c4c3C(F)(F)[C@@H]3C[C@H]43)nc2n1` (atropisomer, axis not shown; (P)) [Example 17, N-((S)-1-((3P)-3-(4-chloro-1-methyl-3-(methylsulfonamido)-1H-indazol-7-yl)-7-((5-methoxypentyl)oxy)-4-oxo-3,4-dihydropyrido[2,3-d]pyrimidin-2-yl)-2-(3,5-difluorophenyl)ethyl)-2-((3bS,4aR)-3-(difluoromethyl)-5,5-difluoro-3b,4,4a,5-tetrahydro-1H-cyclopropa[3,4]cyclopenta[1,2-c]pyrazol-1-yl)acetamide] has a CC50 at 4 day [1] of over 100 nM and an EC50 (recombinant NL4-3 virus) of 0.046 nM.

For `Cn1nc(NS(C)(=O)=O)c2c(Cl)ccc(-n3c([C@H](Cc4cc(F)cc(F)c4)NC(=O)Cn4nc(C(F)F)c5c4C(F)(F)[C@@H]4C[C@H]54)nc4nc(OCC(F)(F)C(F)(F)F)ccc4c3=O)c21` (atropisomer, axis not shown; (P)) [Example 18, N-(1-((3P,3P)-3-(4-chloro-1-methyl-3-(methylsulfonamido)-1H-indazol-7-yl)-4-oxo-7-(2,2,3,3,3-pentafluoropropoxy)-3,4-dihydropyrido[2,3-d]pyrimidin-2-yl)-2-(3,5-difluorophenyl)ethyl)-2-((3bS,4aR)-3-(difluoromethyl)-5,5-difluoro-3b,4,4a,5-tetrahydro-1H-cyclopropa[3,4]cyclopenta[1,2-c]pyrazol-1-yl)acetamide], the CC50 at 4 day [1] was over 100 nM and the EC50 (recombinant NL4-3 virus) was 0.031 nM.

For `Cn1nc(NS(C)(=O)=O)c2c(Cl)ccc(-n3c([C@H](Cc4cc(F)cc(F)c4)NC(=O)Cn4nc(C(F)F)c5c4C(F)(F)[C@@H]4C[C@H]54)nc4nc(OCCC(F)(F)C(F)(F)F)ccc4c3=O)c21` (atropisomer, axis not shown; (P)) [Example 19, N-((S)-1-((3P)-3-(4-chloro-1-methyl-3-(methylsulfonamido)-1H-indazol-7-yl)-4-oxo-7-(3,3,4,4,4-pentafluorobutoxy)-3,4-dihydropyrido[2,3-d]pyrimidin-2-yl)-2-(3,5-difluorophenyl)ethyl)-2-((3bS,4aR)-3-(difluoromethyl)-5,5-difluoro-3b,4,4a,5-tetrahydro-1H-cyclopropa[3,4]cyclopenta[1,2-c]pyrazol-1-yl)acetamide], the CC50 at 4 day [1] was over 100 nM and the EC50 (recombinant NL4-3 virus) was 0.044 nM.

Work on `Cn1nc(NS(C)(=O)=O)c2c(Cl)ccc(-n3c([C@H](Cc4cc(F)cc(F)c4)NC(=O)Cn4nc(C(F)F)c5c4C(F)(F)[C@@H]4C[C@H]54)nc4nc(OCCOCC(F)(F)C(F)(F)F)ccc4c3=O)c21` (atropisomer, axis not shown; (P)) [Example 20, N-((S)-1-((3P)-3-(4-chloro-1-methyl-3-(methylsulfonamido)-1H-indazol-7-yl)-4-oxo-7-(2-(2,2,3,3,3-pentafluoropropoxy)ethoxy)-3,4-dihydropyrido[2,3-d]pyrimidin-2-yl)-2-(3,5-difluorophenyl)ethyl)-2-((3bS,4aR)-3-(difluoromethyl)-5,5-difluoro-3b,4,4a,5-tetrahydro-1H-cyclopropa[3,4]cyclopenta[1,2-c]pyrazol-1-yl)acetamide] yielded a CC50 at 4 day [1] of over 100 nM and an EC50 (recombinant NL4-3 virus) of 0.045 nM.
